Test results published in PubChem BioAssay AID1033 (Sanford-Burnham Center for Chemical Genomics, 2008).
Active and inactive are the calls of the source. No rule for the calls is given here. Residues, ends and D or L forms follow the SMILES beside them.

molecular target: Chaperone protein DnaK (Escherichia coli (strain K12)) (UniProt P0A6Y8); experiment: binders of DnaK substrate-binding domain, biophysical, NMR, chaperone (AID 1033); settings: Purified DnaK SBD, NMR ligand binding
Sequence (P0A6Y8 whole entry, looked up, the tested form may be a part): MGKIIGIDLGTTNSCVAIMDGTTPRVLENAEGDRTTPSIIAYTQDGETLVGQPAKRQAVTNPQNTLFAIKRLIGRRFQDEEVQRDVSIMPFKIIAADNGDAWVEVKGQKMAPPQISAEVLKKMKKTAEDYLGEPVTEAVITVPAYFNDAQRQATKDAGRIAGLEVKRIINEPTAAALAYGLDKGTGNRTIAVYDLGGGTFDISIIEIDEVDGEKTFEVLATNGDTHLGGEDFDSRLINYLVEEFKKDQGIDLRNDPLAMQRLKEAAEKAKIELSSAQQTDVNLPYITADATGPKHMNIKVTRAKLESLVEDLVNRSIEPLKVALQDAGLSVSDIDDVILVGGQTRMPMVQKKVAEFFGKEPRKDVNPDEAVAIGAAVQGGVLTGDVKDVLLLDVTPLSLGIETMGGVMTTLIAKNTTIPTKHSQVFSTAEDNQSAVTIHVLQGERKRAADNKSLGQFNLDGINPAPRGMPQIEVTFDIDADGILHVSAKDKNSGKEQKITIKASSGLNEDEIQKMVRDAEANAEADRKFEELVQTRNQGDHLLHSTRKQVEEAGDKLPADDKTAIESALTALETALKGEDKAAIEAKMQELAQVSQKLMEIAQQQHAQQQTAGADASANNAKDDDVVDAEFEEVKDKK

**Q.** Which Kd does the source give for `O=C(Nc1ccc(N2CCOCC2)cc1)c1cnsn1` here?
**A.** > 4 mM (inactive)

**Q.** How did the Kd turn out when `COc1cc(O)ccc1C(C)=O` was run?
**A.** > 4 mM (inactive)

**Q.** How did the Kd turn out when `CC(=O)Nc1sc(C)c(C)c1C(N)=O` was run?
**A.** > 4 mM (inactive)

**Q.** For `O=C(Nc1ccc(Cl)cc1)N1CCCC1`, which Kd is on record?
**A.** > 4 mM (inactive)

**Q.** How did the Kd turn out when `Cn1c(SCC(N)=O)nnc1-c1c[nH]c2ccccc12` was run?
**A.** > 4 mM (inactive)

**Q.** Which Kd does the source give for `Cc1cc(NC(=O)Cc2cccs2)no1` here?
**A.** > 4 mM (inactive)

**Q.** How did the Kd turn out when `O=C(c1ccccc1)c1cncc(Br)c1` was run?
**A.** > 4 mM (inactive)

**Q.** Which Kd does the source give for `Cc1nn(C)c(Cl)c1S(=O)(=O)N1CCOCC1` here?
**A.** > 4 mM (inactive)

**Q.** Which Kd does the source give for `C=C[C@@H](C1=CC(=O)C(OC)=C(OC)C1=O)c1ccccc1` here?
**A.** > 4 mM (inactive)

**Q.** How did the Kd turn out when `CC1/C(=N/O)C[C@@H]2C[C@H]1C2(C)C` (stereo partly specified) was run?
**A.** > 4 mM (inactive)

**Q.** For `N#C/C(=C\c1ccc[nH]1)S(=O)(=O)c1ccccc1`, which Kd is on record?
**A.** > 4 mM (inactive)

**Q.** How did the Kd turn out when `Cc1ccc(C(=O)Nc2c[nH]c(=O)[nH]c2=O)cc1` was run?
**A.** > 4 mM (inactive)

**Q.** How did the Kd turn out when `NC(=O)c1ccc(Cl)c(N2C(=O)CCC2=O)c1` was run?
**A.** > 4 mM (inactive)

**Q.** With `Cc1ccc2cccc(OC(=O)N3CCCC3)c2n1` as the compound, how does the Kd read?
**A.** > 4 mM (inactive)

**Q.** `NC(=O)c1cccc(N2C(=O)C=CC2=O)c1` was tested. Which Kd did it give?
**A.** > 4 mM (inactive)

**Q.** Which Kd does the source give for `COc1cccc(=O)c2c(C)n(C)c(C)c12` here?
**A.** > 4 mM (inactive)

**Q.** How did the Kd turn out when `CC(=O)NCc1nc2ccccc2[nH]1` was run?
**A.** > 4 mM (inactive)

**Q.** Which Kd does the source give for `Cc1ccc(SCc2cc(=O)n3[nH]c(C)nc3n2)cc1` here?
**A.** > 4 mM (inactive)

**Q.** With `Cc1cc(C(=O)Nc2nnc(C(F)(F)F)s2)no1` as the compound, how does the Kd read?
**A.** > 4 mM (inactive)

**Q.** Which Kd does the source give for `COc1cc(-c2csc(C)n2)ccc1O` here?
**A.** > 4 mM (inactive)

**Q.** With `c1ccc(CCc2nc(-c3ccncc3)no2)cc1` as the compound, how does the Kd read?
**A.** > 4 mM (inactive)

**Q.** With `CSc1nnc2ccc(-c3cccnc3)nn12` as the compound, how does the Kd read?
**A.** > 4 mM (inactive)

**Q.** `Cc1nn(CC(=O)Nc2ccccc2)c(=O)c2ccccc12` was tested. Which Kd did it give?
**A.** > 4 mM (inactive)

**Q.** With `S=C(c1cccnc1)N1CCOCC1` as the compound, how does the Kd read?
**A.** > 4 mM (inactive)

**Q.** `C=C1C2CC[C@@]3(C)[C@H](c4ccoc4)OC(=O)C[C@]13O[C@H]1C[C@H](OC(C)=O)C(C)(C)[C@H](CC(=O)OC)[C@@]21C` was tested. Which Kd did it give?
**A.** > 4 mM (inactive)

**Q.** `Cc1ccccc1NC(=O)/C=C\C(N)=O` was tested. Which Kd did it give?
**A.** > 4 mM (inactive)

**Q.** `COc1ccc2c(c1OC)C(=O)O[C@H]2[C@H]1c2cc3c(cc2CCN1C)OCO3` was tested. Which Kd did it give?
**A.** > 4 mM (inactive)

**Q.** With `S=C(CN1CCCC1=S)N1CCOCC1` as the compound, how does the Kd read?
**A.** > 4 mM (inactive)

**Q.** For `Cc1ccc(CNc2ccc(O)cc2)cc1`, which Kd is on record?
**A.** > 4 mM (inactive)

**Q.** Which Kd does the source give for `O=C(c1ccco1)N1CCN(Cc2cccc(F)c2)CC1` here?
**A.** > 4 mM (inactive)

**Q.** `CCNS(=O)(=O)c1ccc(OC)c(C)c1` was tested. Which Kd did it give?
**A.** > 4 mM (inactive)

**Q.** With `Cc1nc2ccccc2c2c1C(=O)N(N)C2=O` as the compound, how does the Kd read?
**A.** > 4 mM (inactive)

**Q.** With `Cn1cnnc1SCC(=O)Nc1ccccc1` as the compound, how does the Kd read?
**A.** > 4 mM (inactive)

**Q.** How did the Kd turn out when `CN1C(=O)/C(=C/c2ccc(O)cc2O)SC1=S` was run?
**A.** > 4 mM (inactive)

**Q.** `O=C1CCc2ccccc2CN1` was tested. Which Kd did it give?
**A.** > 4 mM (inactive)

**Q.** For `O=C(Nc1nccs1)c1ccc(=O)[nH]n1`, which Kd is on record?
**A.** > 4 mM (inactive)

**Q.** How did the Kd turn out when `c1cc(C(N2CCOCC2)N2CCOCC2)ccn1` was run?
**A.** > 4 mM (inactive)

**Q.** With `O=C(O)C1Cc2ccccc2O1` (stereo unspecified) as the compound, how does the Kd read?
**A.** > 4 mM (inactive)

**Q.** Which Kd does the source give for `Cn1c(CO)nc2ccccc21` here?
**A.** > 4 mM (inactive)

**Q.** With `Cc1cccc(NS(=O)(=O)c2cccs2)n1` as the compound, how does the Kd read?
**A.** > 4 mM (inactive)

**Q.** Which Kd does the source give for `O=C1NC(=S)NC(=O)C1=Cc1ccco1` here?
**A.** > 4 mM (inactive)

**Q.** With `COC(=O)Nc1c(C)n(C)n(-c2ccccc2)c1=O` as the compound, how does the Kd read?
**A.** > 4 mM (inactive)

**Q.** Which Kd does the source give for `CC(=O)N(C)Cc1nc2ccccc2n1C` here?
**A.** > 4 mM (inactive)

**Q.** How did the Kd turn out when `COc1ccc2[nH]cc(CCN(C)C)c2c1` was run?
**A.** > 4 mM (inactive)

**Q.** For `NC1=NC(=O)/C(=C\c2ccco2)S1`, which Kd is on record?
**A.** > 4 mM (inactive)

**Q.** With `O=C(O)CNC(=O)c1ccc([N+](=O)[O-])cc1` as the compound, how does the Kd read?
**A.** > 4 mM (inactive)

**Q.** `COc1ccccc1-c1noc(-c2ccncc2)n1` was tested. Which Kd did it give?
**A.** > 4 mM (inactive)

**Q.** How did the Kd turn out when `Nc1cccc(F)c1-c1ncon1` was run?
**A.** > 4 mM (inactive)

**Q.** How did the Kd turn out when `COc1ccc2cc1Oc1ccc(cc1)C[C@H]1c3cc(c(OC)cc3CCN1C)Oc1c(OC)c(OC)cc3c1[C@H](C2)N(C)CC3` was run?
**A.** > 4 mM (inactive)

**Q.** With `Cn1c2c(c(=O)n(C)c1=O)CN(Cc1ccco1)CN2` as the compound, how does the Kd read?
**A.** > 4 mM (inactive)

**Q.** Which Kd does the source give for `COC(=O)[C@]1(C)CC[C@]2(C)CC[C@]3(C)C4=CCc5c(cc(O)c(O)c5C)[C@]4(C)CC[C@@]3(C)C2C1` (stereo partly specified) here?
**A.** > 4 mM (inactive)

**Q.** How did the Kd turn out when `CC(=O)c1c(C)n([O-])c2ccccc2[n+]1=O` was run?
**A.** > 4 mM (inactive)

**Q.** Which Kd does the source give for `CCC1(CC)C(=O)N=C(N)NC1=O` here?
**A.** > 4 mM (inactive)

**Q.** How did the Kd turn out when `O=C(/C=C/c1ccco1)NC1=NCCS1` was run?
**A.** > 4 mM (inactive)

**Q.** Which Kd does the source give for `OC1CCN(c2nccc(C(F)(F)F)n2)CC1` here?
**A.** > 4 mM (inactive)

**Q.** For `CC(=O)O[C@@H]1CC2C(C)(C)CCC(=O)[C@]2(C)C2CC[C@@]3(C)[C@H](c4ccoc4)OC(=O)C4OC43[C@@]21C` (stereo partly specified), which Kd is on record?
**A.** > 4 mM (inactive)

**Q.** `Cc1cc(C)n(CC(=O)NC2CCCCC2)n1` was tested. Which Kd did it give?
**A.** > 4 mM (inactive)

**Q.** With `CC(C)=CCOc1c2occc2cc2ccc(=O)oc12` as the compound, how does the Kd read?
**A.** > 4 mM (inactive)

**Q.** `O=C1CCC(=O)N1CN1CCOCC1` was tested. Which Kd did it give?
**A.** > 4 mM (inactive)

**Q.** Which Kd does the source give for `C/C1=C\CCC(=O)C2CC(C)(C)C2CC1` (stereo unspecified) here?
**A.** > 4 mM (inactive)

**Q.** With `CC(=O)N[C@@H](CC(=O)O)C(=O)N[C@@H](CCC(=O)O)C(=O)O` (Ac-Asp-Glu-OH) as the compound, how does the Kd read?
**A.** > 4 mM (inactive)
